Source: PMC9001978, “Determining the Effects of Differential Expression of GRKs and β-arrestins on CLR-RAMP Agonist Bias” (Frontiers in Physiology, 2022)

How the values were obtained:
HEK293T cells = test: cAMP accumulation in HEK293T cells with endogenous CLR and RAMPs; format: cell-based; details: far lower potency than expected of CLR with any RAMP
CLR-RAMP1 [1] = target: T1, CLR-RAMP1 (Homo sapiens, UniProt O60894+Q16602); test: cAMP accumulation at CLR-RAMP1
CLR-RAMP1 [2] = target: T1, CLR-RAMP1; test: β-arrestin1 recruitment to CLR-RAMP1 (BRET); details: HEK293T, n = 3
CLR-RAMP3 [3] = target: T2, CLR-RAMP3 (Homo sapiens, UniProt O60896+Q16602); test: β-arrestin1 recruitment to CLR-RAMP3 (BRET); details: HEK293T, n = 3
T2 sequence (Q16602 23-461): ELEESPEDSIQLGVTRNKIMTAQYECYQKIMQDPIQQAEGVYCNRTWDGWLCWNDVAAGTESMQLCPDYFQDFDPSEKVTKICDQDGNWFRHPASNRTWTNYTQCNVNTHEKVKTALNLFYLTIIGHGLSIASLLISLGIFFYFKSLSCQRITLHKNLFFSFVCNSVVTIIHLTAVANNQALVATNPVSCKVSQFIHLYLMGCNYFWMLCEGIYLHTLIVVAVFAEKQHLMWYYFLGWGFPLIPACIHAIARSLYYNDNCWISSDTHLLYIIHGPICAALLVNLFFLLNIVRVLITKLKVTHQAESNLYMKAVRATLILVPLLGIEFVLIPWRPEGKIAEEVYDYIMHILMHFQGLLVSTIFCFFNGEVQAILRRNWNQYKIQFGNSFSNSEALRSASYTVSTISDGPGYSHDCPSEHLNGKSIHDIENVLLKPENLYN
T2 sequence (O60896 24-148): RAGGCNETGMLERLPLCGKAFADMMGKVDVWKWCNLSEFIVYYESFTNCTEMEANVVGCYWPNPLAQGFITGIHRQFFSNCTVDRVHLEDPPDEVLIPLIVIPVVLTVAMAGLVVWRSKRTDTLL

CLR-RAMP1 [4] = target: T1, CLR-RAMP1; test: β-arrestin2 recruitment to CLR-RAMP1 (BRET); details: HEK293T, n = 3
CLR-RAMP3 [5] = target: T2, CLR-RAMP3; test: β-arrestin2 recruitment to CLR-RAMP3 (BRET); details: HEK293T, n = 3
CLR-RAMP1 [6] = target: T1, CLR-RAMP1; test: Internalisation of CLR-RAMP1 (BRET CLR-Nluc / RIT-Venus); details: HEK293T, CLR-Nluc + FLAG-RAMP1, RIT-Venus BRET; mean ± SEM, n = 3-4
CLR-RAMP3 [7] = target: T2, CLR-RAMP3; test: Internalisation of CLR-RAMP3 (BRET CLR-Nluc / RIT-Venus); details: HEK293T, CLR-Nluc + FLAG-RAMP3, RIT-Venus BRET; mean ± SEM, n = 4-5

T1 sequence (Q16602 23-461): as the sequence (Q16602 23-461) above
T1 sequence (O60894 27-148): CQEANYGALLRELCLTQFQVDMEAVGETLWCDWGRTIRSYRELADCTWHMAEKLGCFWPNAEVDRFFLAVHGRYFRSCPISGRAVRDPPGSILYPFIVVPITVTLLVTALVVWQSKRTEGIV

Q: Which results are given for CC[C@H](C)[C@H](NC(=O)[C@H](CCC(N)=O)NC(=O)[C@H](Cc1c[nH]cn1)NC(=O)[C@H](C)NC(=O)[C@H](CC(C)C)NC(=O)[C@H](CCCCN)NC(=O)[C@H](CCC(N)=O)NC(=O)[C@@H](NC(=O)[C@@H](NC(=O)[C@@H]1CSSC[C@H](NC(=O)CNC(=O)[C@H](Cc2ccccc2)NC(=O)[C@H](CO)NC(=O)[C@H](CCCNC(=N)N)NC(=O)[C@H](CC(C)C)NC(=O)CNC(=O)[C@H](CCC(N)=O)NC(=O)[C@H](Cc2ccccc2)NC(=O)[C@H](CC(N)=O)NC(=O)[C@H](CC(N)=O)NC(=O)[C@H](CCSC)NC(=O)[C@H](CO)NC(=O)[C@H](CCC(N)=O)NC(=O)[C@H](CCCNC(=N)N)NC(=O)[C@@H](N)Cc2ccc(O)cc2)C(=O)N[C@@H](CCCNC(=N)N)C(=O)N[C@@H](Cc2ccccc2)C(=O)NCC(=O)N[C@@H]([C@@H](C)O)C(=O)N1)[C@@H](C)O)C(C)C)C(=O)N[C@@H](Cc1ccc(O)cc1)C(=O)N[C@@H](CCC(N)=O)C(=O)N[C@@H](Cc1ccccc1)C(=O)N[C@H](C(=O)N[C@@H](CC(=O)O)C(=O)N[C@@H](CCCCN)C(=O)N[C@@H](CC(=O)O)C(=O)N[C@@H](CCCCN)C(=O)N[C@@H](CC(=O)O)C(=O)N[C@@H](CC(N)=O)C(=O)N[C@H](C(=O)N[C@@H](C)C(=O)N1CCC[C@H]1C(=O)N[C@@H](CCCNC(=N)N)C(=O)N[C@@H](CO)C(=O)N[C@@H](CCCCN)C(=O)N[C@H](C(=O)N[C@@H](CO)C(=O)N1CCC[C@H]1C(=O)N[C@@H](CCC(N)=O)C(=O)NCC(=O)N[C@@H](Cc1ccc(O)cc1)C(N)=O)[C@@H](C)CC)C(C)C)[C@@H](C)O [AM, adrenomedullin]?
A: cAMP response via endogenous low levels of CLR and RAMPs (HEK293T cells): small response; Emax, cAMP accumulation (CLR-RAMP1 [1]; HEK293T, CLR-Nluc + FLAG-RAMP1, 30 min stimulation, LANCE ultra, mean ± SEM, n = 3-4): 84.7 ± 3.0 percentage 100 μM forskolin; Emax, cAMP accumulation (CLR-RAMP1 [1]; HEK293T, GRK2 overexpressed, 30 min, n = 3): 61.6 ± 3.7 percentage 100μM forskolin; Emax, cAMP accumulation (CLR-RAMP1 [1]; HEK293T, GRK3 overexpressed, 30 min, n = 3): 46.5 ± 2.9 percentage 100μM forskolin; Emax, cAMP accumulation (CLR-RAMP1 [1]; HEK293T, GRK4 overexpressed, 30 min, n = 3): 51.3 ± 5.3 percentage 100μM forskolin; Emax, cAMP accumulation (CLR-RAMP1 [1]; HEK293T, GRK5 overexpressed, 30 min, n = 3): 40.0 ± 4.8 percentage 100μM forskolin; Emax, cAMP accumulation (CLR-RAMP1 [1]; HEK293T, GRK6 overexpressed, 30 min, n = 3): 58.9 ± 7.4 percentage 100μM forskolin; Emax, cAMP accumulation (CLR-RAMP1 [1]; HEK293T, β-arrestin1 overexpressed, 500 μM IBMX, mean ± SEM, n = 4): 98.6 ± 2.4 percentage 100 μM forskolin; Emax, cAMP accumulation (CLR-RAMP1 [1]; HEK293T, β-arrestin2 overexpressed, 500 μM IBMX, mean ± SEM, n = 3-4): 99.3 ± 2.1 percentage 100 μM forskolin; Emax, cAMP accumulation (CLR-RAMP1 [1]; HEK293 cells, 500 μM IBMX, mean ± SEM, n = 4): 81.1 ± 7.9 percentage 100 μM forskolin; Emax, cAMP accumulation (CLR-RAMP1 [1]; HEK293Δβ-arr1/2 cells, 500 μM IBMX, mean ± SEM, n = 4): 89.0 ± 5.4 percentage 100 μM forskolin; Emax, cAMP accumulation (CLR-RAMP1 [1]; pre-treated with 100 μM barbadin, 30 min, mean ± SEM, n = 5-6): ~91.4 ± 5.5 percentage 100μM forskolin; Emax, cAMP accumulation (CLR-RAMP1 [1]; pre-treated with 1% DMSO, 30 min, mean ± SEM, n = 5-6): 88.0 ± 5.2 percentage 100μM forskolin; Emax, β-arrestin1 recruitment (CLR-RAMP1 [2]; CLR-Nluc + FLAG-RAMP1 + β-arrestin1-YFP, BRET, mean ± SEM): ~63 ± 14 BRET units (x10^-3); Emax, β-arrestin1 recruitment (CLR-RAMP1 [2]; GRK2 overexpressed): ~57 ± 7 BRET units (x10^-3); Emax, β-arrestin1 recruitment (CLR-RAMP1 [2]; GRK3 overexpressed): ~43 ± 5 BRET units (x10^-3); Emax, β-arrestin1 recruitment (CLR-RAMP1 [2]; GRK4 overexpressed): ~39 ± 7 BRET units (x10^-3); Emax, β-arrestin1 recruitment (CLR-RAMP1 [2]; GRK6 overexpressed): ~11 ± 2 BRET units (x10^-3); Emax, β-arrestin1 recruitment (CLR-RAMP1 [2]; GRK series: Vector): ~63 ± 14 BRET units (x10^-3); Emax, β-arrestin1 recruitment (CLR-RAMP3 [3]; CLR-Nluc + FLAG-RAMP3 + β-arrestin1-YFP, BRET, mean ± SEM): 8 ± 1 BRET units (x10^-3); Emax, β-arrestin1 recruitment (CLR-RAMP3 [3]; GRK2 overexpressed): 6 ± 1 BRET units (x10^-3); Emax, β-arrestin1 recruitment (CLR-RAMP3 [3]; GRK3 overexpressed): 5 ± 1 BRET units (x10^-3); Emax, β-arrestin1 recruitment (CLR-RAMP3 [3]; GRK4 overexpressed): 4 ± 1 BRET units (x10^-3); Emax, β-arrestin1 recruitment (CLR-RAMP3 [3]; GRK series: Vector): 7 ± 1 BRET units (x10^-3); Emax, β-arrestin2 recruitment (CLR-RAMP1 [4]; CLR-Nluc + FLAG-RAMP1 + β-arrestin2-YFP, BRET, mean ± SEM): ~98 ± 10 BRET units (x10^-3); Emax, β-arrestin2 recruitment (CLR-RAMP1 [4]; GRK2 overexpressed): ~54 ± 4 BRET units (x10^-3); Emax, β-arrestin2 recruitment (CLR-RAMP1 [4]; GRK3 overexpressed): ~47 ± 3 BRET units (x10^-3); Emax, β-arrestin2 recruitment (CLR-RAMP1 [4]; GRK4 overexpressed): ~48 ± 3 BRET units (x10^-3); Emax, β-arrestin2 recruitment (CLR-RAMP1 [4]; GRK5 overexpressed): 11 ± 1 BRET units (x10^-3); Emax, β-arrestin2 recruitment (CLR-RAMP1 [4]; GRK series: Vector): ~98 ± 10 BRET units (x10^-3); Emax, β-arrestin2 recruitment (CLR-RAMP3 [5]; CLR-Nluc + FLAG-RAMP3 + β-arrestin2-YFP, BRET, mean ± SEM): 11 ± 1 BRET units (x10^-3); Emax, β-arrestin2 recruitment (CLR-RAMP3 [5]; GRK2 overexpressed): 8 ± 1 BRET units (x10^-3); Emax, β-arrestin2 recruitment (CLR-RAMP3 [5]; GRK3 overexpressed): 11 ± 2 BRET units (x10^-3); Emax, β-arrestin2 recruitment (CLR-RAMP3 [5]; GRK4 overexpressed): 8 ± 1 BRET units (x10^-3); Emax, β-arrestin2 recruitment (CLR-RAMP3 [5]; GRK series: Vector): 11 ± 1 BRET units (x10^-3); Emax, internalisation (CLR-RAMP1 [6]): ~-44 ± 42 BRET units (x10^-3); Emax, internalisation (CLR-RAMP3 [7]): -5 ± 1 BRET units (x10^-3)
